Each structure is given as a SMILES string.

This assay has as its system mixture of bacteria, yeasts and fungi/moulds (inoculum). As to the kind of experiment: Challenge test of preserved polymer dispersions with mixed inoculum (repeated up to six cycles). The assay is classed as cell-based. Particulars: at concentrations of <15 ppm in products such as aqueous coating compositions. The procedure:
100 g of the dispersions listed above are weighed into sterile sample bottles. To each sample 1% by weight of an inoculum is added and incubated at 30° C. for 7 days. As inoculum, a suspension in water which contains the following concentrations is used: Bacteria: 8.0×10^8−2.0×10^9 cfu/cm^3 Yeasts/moulds: 8.0×10^6−2.0×10^7 cfu/cm^3 A mixture of the following bacteria, yeasts and fungi/moulds are used for the preparation of the inoculum: Bacteria mixture of: Aeromonas hydrophila (sorbia, BAM 485) Alcaligenes faecalis (BAM 486) Providencia rettgeri (BAM 488) Pseudomonas aeruginosa (BAM 489) Pseudomonas sp (BAM 490) Escherichia coli (DSM 13631) Staphylococcus aureus (DSM 346) Micrococcus Luteus (DSM 20030) Yeast mixture of: Rhodotorula rubra (DSM 13621) Saccharomyces cerevisiae (DSM 13622) Issatchenkia orientalis (DSM 6128) Filamentous Fungy mixture of: Aspergillus terréus (DSM 13630) Geotrichum candidum (DSM 13629) Fusarium Solani (DSM 13635) After 7 days the microbial contamination remaining in the samples is determined by streaking the samples out onto Trypticase Sel Agar (TSA) and on Malt Extra Agar (MEA) as nutrient media and incubated at 30° C. for 7 days. The level of growing is measured by using a rating of 0 for no growth up to a rating of 3 for full growth. The test is passed in case no growth is observed which means a rating of 0 on TSA and MEA nutrient media. […]

Regarding `Cn1sc(Cl)cc1=O` [CIT, 5-chloro-2-methyl-4-isothiazolin-3-one], the “protection against microbial attack” value is on record as “not sufficient”.

Values taken from patent US20210388213A1, “PROCESS FOR PRODUCING AQUEOUS COATING COMPOSITIONS” (CELANESE INTERNATIONAL CORPORATION, priority 2018, published 2021).
